± gives the standard deviation of the averaged measurements.
Columns and labels:
Experiment in all cases: relative viability vs DMSO control (72 h) (fraction); higher = more viable cells
G401 = tested on: G401
How it was run: (§1)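 ATPLite readings, expressed as percent growth and averaged over up to triplicate wells, provided relative viability. Before reading, sarcoma cell lines seeded in 384-well plates to reach 80–90% confluence received 2.5 µl of serially diluted compound after 24 h, from source plates of 10 mM to 0.0002 mM. Plates were held 72 h at 37 °C, 5% CO2, with 0.1% DMSO as vehicle and a 5 µM positive control. The data were rescaled to 1 for full and 0 for none.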

HT1080 = tested on: HT1080
How it was run: as §1

KHOS-NP = tested on: KHOS-NP
How it was run: as §1

MES-SA = tested on: MES-SA
How it was run: as §1

RD-ES = tested on: RD-ES
How it was run: as §1

RD = tested on: RD
How it was run: as §1

SK-ES-1 = tested on: SK-ES-1
How it was run: as §1

SK-LMS-1 = tested on: SK-LMS-1
How it was run: as §1

SW1353 = tested on: SW1353
How it was run: as §1

SW684 = tested on: SW684
How it was run: as §1

SW872 = tested on: SW872
How it was run: as §1

VA-ES-BJ = tested on: VA-ES-BJ
How it was run: as §1

`CCN1CCN(c2ccc(Nc3cc(N(C)C(=O)Nc4c(Cl)c(OC)cc(OC)c4Cl)ncn3)cc2)CC1` [Infigratinib] gave a relative viability (G401; 85 pM) of 1.048 ± 0.0058, a relative viability (G401; 0.000254 µM) of 1.039 ± 0.0064 and a relative viability (G401; 0.00076 µM) of 1.02 ± 0.031. For the same compound, the relative viability (G401; 0.00229 µM) was 0.9703 ± 0.0075, the relative viability (G401; 0.00686 µM) was 0.952 ± 0.012 and the relative viability (G401; 0.02058 µM) was 0.8266 ± 0.0059. The relative viability (G401; 0.0617 µM) was 0.749 ± 0.051, the relative viability (G401; 0.1852 µM) was 0.649 ± 0.025 and the relative viability (G401; 0.5556 µM) was 0.59 ± 0.025. It also gave a relative viability (G401; 1.6667 µM) of 0.515 ± 0.034, a relative viability (G401; 5 µM) of 0.33 ± 0.034 and a relative viability (HT1080; 85 pM) of 1.03 ± 0.049. For the same compound, the relative viability (HT1080; 0.000254 µM) was 1.07 ± 0.063, the relative viability (HT1080; 0.00076 µM) was 1.072 ± 0.01 and the relative viability (HT1080; 0.00229 µM) was 1.04 ± 0.012. The relative viability (HT1080; 0.00686 µM) was 1.053 ± 0.002, the relative viability (HT1080; 0.02058 µM) was 1.067 ± 0.0055 and the relative viability (HT1080; 0.0617 µM) was 1.04 ± 0.021. For the same compound, the relative viability (HT1080; 0.1852 µM) was 1.06 ± 0.016, the relative viability (HT1080; 0.5556 µM) was 1.087 ± 0.0036 and the relative viability (HT1080; 1.6667 µM) was 1.11 ± 0.017. The relative viability (HT1080; 5 µM) was 1.01 ± 0.016, the relative viability (KHOS-NP; 85 pM) was 1.07 ± 0.024 and the relative viability (KHOS-NP; 0.000254 µM) was 1.12 ± 0.0053. It also gave a relative viability (KHOS-NP; 0.00076 µM) of 1.09 ± 0.031, a relative viability (KHOS-NP; 0.00229 µM) of 1.06 ± 0.02 and a relative viability (KHOS-NP; 0.00686 µM) of 1.08 ± 0.024. The relative viability (KHOS-NP; 0.02058 µM) was 1.085 ± 0.0074, the relative viability (KHOS-NP; 0.0617 µM) was 1.08 ± 0.027 and the relative viability (KHOS-NP; 0.1852 µM) was 1.05 ± 0.07. The relative viability (KHOS-NP; 0.5556 µM) was 1.06 ± 0.032, the relative viability (KHOS-NP; 1.6667 µM) was 1.08 ± 0.02 and the relative viability (KHOS-NP; 5 µM) was 1.08 ± 0.027. It also gave a relative viability (MES-SA; 85 pM) of 0.933 ± 0.027, a relative viability (MES-SA; 0.000254 µM) of 0.94 ± 0.022 and a relative viability (MES-SA; 0.00076 µM) of 0.927 ± 0.024. The relative viability (MES-SA; 0.00229 µM) was 0.928 ± 0.0093, the relative viability (MES-SA; 0.00686 µM) was 0.929 ± 0.029 and the relative viability (MES-SA; 0.02058 µM) was 0.869 ± 0.025. The relative viability (MES-SA; 0.0617 µM) was 0.846 ± 0.025, the relative viability (MES-SA; 0.1852 µM) was 0.733 ± 0.033 and the relative viability (MES-SA; 0.5556 µM) was 0.696 ± 0.025. It also gave a relative viability (MES-SA; 1.6667 µM) of 0.556 ± 0.0096, a relative viability (MES-SA; 5 µM) of 0.412 ± 0.012 and a relative viability (RD-ES; 85 pM) of 0.972 ± 0.033. For the same compound, the relative viability (RD-ES; 0.000254 µM) was 0.95 ± 0.019, the relative viability (RD-ES; 0.00076 µM) was 0.965 ± 0.037 and the relative viability (RD-ES; 0.00229 µM) was 0.998 ± 0.014. It also gave a relative viability (RD-ES; 0.00686 µM) of 0.981 ± 0.037, a relative viability (RD-ES; 0.02058 µM) of 0.959 ± 0.012 and a relative viability (RD-ES; 0.0617 µM) of 0.957 ± 0.017. The relative viability (RD-ES; 0.1852 µM) was 0.959 ± 0.021, the relative viability (RD-ES; 0.5556 µM) was 0.928 ± 0.025 and the relative viability (RD-ES; 1.6667 µM) was 0.802 ± 0.018. The relative viability (RD-ES; 5 µM) was 0.783 ± 0.014, the relative viability (RD; 85 pM) was 1.07 ± 0.038 and the relative viability (RD; 0.000254 µM) was 1.06 ± 0.028. It also gave a relative viability (RD; 0.00076 µM) of 1.11 ± 0.014, a relative viability (RD; 0.00229 µM) of 1.13 ± 0.027 and a relative viability (RD; 0.00686 µM) of 1.14 ± 0.048. For the same compound, the relative viability (RD; 0.02058 µM) was 1.12 ± 0.068, the relative viability (RD; 0.0617 µM) was 1.12 ± 0.084 and the relative viability (RD; 0.1852 µM) was 1.14 ± 0.12. It also gave a relative viability (RD; 0.5556 µM) of 1.12 ± 0.071, a relative viability (RD; 1.6667 µM) of 1.13 ± 0.072 and a relative viability (RD; 5 µM) of 1.11 ± 0.1. The relative viability (SK-ES-1; 85 pM) was 1.03 ± 0.039, the relative viability (SK-ES-1; 0.000254 µM) was 1.07 ± 0.04 and the relative viability (SK-ES-1; 0.00076 µM) was 1 ± 0.03. For the same compound, the relative viability (SK-ES-1; 0.00229 µM) was 1.06 ± 0.019, the relative viability (SK-ES-1; 0.00686 µM) was 1.03 ± 0.04 and the relative viability (SK-ES-1; 0.02058 µM) was 1.01 ± 0.027. For the same compound, the relative viability (SK-ES-1; 0.0617 µM) was 0.971 ± 0.036, the relative viability (SK-ES-1; 0.1852 µM) was 0.929 ± 0.06 and the relative viability (SK-ES-1; 0.5556 µM) was 0.797 ± 0.0085. The relative viability (SK-ES-1; 1.6667 µM) was 0.559 ± 0.0091, the relative viability (SK-ES-1; 5 µM) was 0.373 ± 0.0076 and the relative viability (SK-LMS-1; 85 pM) was 1.12 ± 0.035. It also gave a relative viability (SK-LMS-1; 0.000254 µM) of 1.11 ± 0.06, a relative viability (SK-LMS-1; 0.00076 µM) of 1.08 ± 0.064 and a relative viability (SK-LMS-1; 0.00229 µM) of 1.13 ± 0.065. It also gave a relative viability (SK-LMS-1; 0.00686 µM) of 1.1 ± 0.063, a relative viability (SK-LMS-1; 0.02058 µM) of 1.06 ± 0.074 and a relative viability (SK-LMS-1; 0.0617 µM) of 1.08 ± 0.056. For the same compound, the relative viability (SK-LMS-1; 0.1852 µM) was 1.11 ± 0.11, the relative viability (SK-LMS-1; 0.5556 µM) was 1.08 ± 0.089 and the relative viability (SK-LMS-1; 1.6667 µM) was 1.04 ± 0.061. For the same compound, the relative viability (SK-LMS-1; 5 µM) was 0.952 ± 0.033, the relative viability (SW1353; 85 pM) was 1.06 ± 0.023 and the relative viability (SW1353; 0.000254 µM) was 1.069 ± 0.0048. For the same compound, the relative viability (SW1353; 0.00076 µM) was 1.04 ± 0.024, the relative viability (SW1353; 0.00229 µM) was 1.01 ± 0.023 and the relative viability (SW1353; 0.00686 µM) was 0.98 ± 0.017. The relative viability (SW1353; 0.02058 µM) was 0.914 ± 0.029, the relative viability (SW1353; 0.0617 µM) was 0.861 ± 0.018 and the relative viability (SW1353; 0.1852 µM) was 0.861 ± 0.013. For the same compound, the relative viability (SW1353; 0.5556 µM) was 0.861 ± 0.053, the relative viability (SW1353; 1.6667 µM) was 0.8437 ± 0.0034 and the relative viability (SW1353; 5 µM) was 0.741 ± 0.04. It also gave a relative viability (SW684; 85 pM) of 1.18 ± 0.069, a relative viability (SW684; 0.000254 µM) of 1.19 ± 0.066 and a relative viability (SW684; 0.00076 µM) of 1.19 ± 0.029. It also gave a relative viability (SW684; 0.00229 µM) of 1.14 ± 0.062, a relative viability (SW684; 0.00686 µM) of 1.18 ± 0.043 and a relative viability (SW684; 0.02058 µM) of 1.18 ± 0.075. The relative viability (SW684; 0.0617 µM) was 1.16 ± 0.014, the relative viability (SW684; 0.1852 µM) was 1.17 ± 0.055 and the relative viability (SW684; 0.5556 µM) was 1.15 ± 0.097. It also gave a relative viability (SW684; 1.6667 µM) of 1.22 ± 0.073, a relative viability (SW684; 5 µM) of 1.14 ± 0.019 and a relative viability (SW872; 85 pM) of 1.09 ± 0.046. The relative viability (SW872; 0.000254 µM) was 1.097 ± 0.01, the relative viability (SW872; 0.00076 µM) was 1.09 ± 0.028 and the relative viability (SW872; 0.00229 µM) was 1.06 ± 0.042. The relative viability (SW872; 0.00686 µM) was 1.03 ± 0.07, the relative viability (SW872; 0.02058 µM) was 1.03 ± 0.019 and the relative viability (SW872; 0.0617 µM) was 1.06 ± 0.052. For the same compound, the relative viability (SW872; 0.1852 µM) was 1.04 ± 0.058, the relative viability (SW872; 0.5556 µM) was 1.01 ± 0.043 and the relative viability (SW872; 1.6667 µM) was 0.882 ± 0.084. For the same compound, the relative viability (SW872; 5 µM) was 0.839 ± 0.023, the relative viability (VA-ES-BJ; 85 pM) was 1.03 ± 0.012 and the relative viability (VA-ES-BJ; 0.000254 µM) was 1.048 ± 0.01. It also gave a relative viability (VA-ES-BJ; 0.00076 µM) of 1.03 ± 0.023, a relative viability (VA-ES-BJ; 0.00229 µM) of 1.04 ± 0.058 and a relative viability (VA-ES-BJ; 0.00686 µM) of 1.04 ± 0.01. The relative viability (VA-ES-BJ; 0.02058 µM) was 0.977 ± 0.036, the relative viability (VA-ES-BJ; 0.0617 µM) was 1.01 ± 0.022 and the relative viability (VA-ES-BJ; 0.1852 µM) was 0.982 ± 0.036. It also gave a relative viability (VA-ES-BJ; 0.5556 µM) of 0.949 ± 0.006, a relative viability (VA-ES-BJ; 1.6667 µM) of 0.8949 ± 0.0058 and a relative viability (VA-ES-BJ; 5 µM) of 0.871 ± 0.018.
